The text below walks through data of US20240383874A1, “BENZENE RING DERIVATIVE, AND COMPOSITION AND PHARMACEUTICAL USE THEREOF” (Xizang Haisco Pharmaceutical Co., Ltd., priority 2020, published 2024).

In general, AUC(0-t) refers to the area under the concentration-time curve up to a stated or last time point. Read a low AUC(0-t) as less exposure.

Counter-ions that a name gives are not always drawn. Like-named read-outs stand apart in the source and are kept apart here.

The test system of one series is 22RV1 cells. As to the kind of experiment: Experiment 2 on inhibiting 22RV1 cell proliferation (7 days, CellTiter-Glo). To be noted: 1% css-FBS phenol red-free medium, incubated with compound 7 days, read-out: IC50 values on proliferation inhibition of 22RV1 cells. Type of series: cell-based. An outline of the steps: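 Survival measured by CellTiter-Glo after 7 days of compound exposure, normalised to DMSO controls, with IC50 fitted by dose-response. Cells (22RV1, 2000/well) were seeded overnight in 1% css-FBS phenol red-free medium before dosing.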
Background: In ATP-based viability assays light output follows the ATP content of the culture.

Series [1] concerns AR splice variants (AR-Vs). Put plainly: Degradation experiment on AR splice variants (AR-Vs) in 22RV1 cells. In kind it is cell-based. To be noted: 24 h, relative to vehicle control. The procedure: (§1) Prostate cancer cells 22RV1 were purchased from ATCC, the cell medium was 1640+10% FBS, and the cells were cultured in an incubator at 37° C. under 5% CO2. On day 1, the cells in an exponential phase were collected. With a 1% css-FBS phenol red-free medium, the cell suspension was adjusted to a corresponding concentration and plated into a 6-well plate at 1 mL/well and 100000 cells/well. The next day, a 1% css-FBS phenol-free medium containing the compound to be tested was added, a 1% css-FBS phenol-free medium containing 0.2% DMSO was added to one well as DMSO vehicle control, and the 6-well plate was cultured in an incubator at 37° C. under 5% CO2. After 24 h, the cells were digested with pancreatin and collected into a 1.5 mL centrifuge tube. 15 μL of RIPA lysate (containing 1×protease inhibitor cocktail) was added to each well, and the cells were lysed on ice for 15 min and then centrifuged at 12000 g and 4° C. for 10 min. The supernatant protein samples were collected, and protein quantification was performed by a BCA method. AR-FL and AR-Vs were detected using fully automatic protein expression quantitative analysis, which involved diluting the protein to be tested to 1 mg/mL. 4 μL of the diluted protein samples were added to 1 μL of 5×Master Mix (provided in the kit), and the prepared samples were denatured at 95° C. for 5 min and placed on ice for use. The primary antibodies, AR (CST, 5153S) and β-actin (CST, 3700), were diluted with Antibody Diluent II (provided in the kit) at a dilution ratio of 1:20 and 1:200, respectively. The secondary antibody was a mixed goat anti-mouse and goat anti-rabbit secondary antibody in a ratio of 1:1, and the color development solution was a mixed solution of Lumino-S and Peroxide in a ratio of 1:1. The prepared reagents were successively added to an assay plate according to instructions of the kit and detected on an instrument. Western blot band processing was performed using “Compass for SW”, a fully automatic protein expression quantitative analysis software, in which western blot bands were automatically simulated based on signal values. The degradation rate of AR-FL (3) or AR-Vs (4) relative to vehicle control at different compound concentrations was calculated according to formulas (3) and (4), wherein AR-FLcompound was the relative peak area of AR-FL in the treated group, and AR-FLsolvent was the relative peak area of AR-FL in the vehicle control group; AR-Vscompound was the relative peak area of AR-Vs in the treated group, and AR-Vssolvent was the relative peak area of AR-Vs in the vehicle control group.
(§2) DC50 calculation: the compound concentration DC50 values at which the degradation rate of AR-FL or AR-Vs was 50% were calculated using OriginPro2015 software and analyzed using DoseResp function according to formula (3) or (4).

Another series relates to full-length AR (AR-FL). As to the kind of experiment: Degradation experiment on full-length AR (AR-FL) in 22RV1 cells. In kind it is cell-based. To be noted: 24 h, relative to vehicle control. On the procedure:
as §1, §2

A short description of series [2]: Pharmacokinetic test in rats. In kind it is in vivo. To be noted: rat, po; male SD rats, single dose i.g. 5 mg/kg, plasma, 0-24 h. On the procedure:
Test objective: in this test, a single dose of test compounds was administered to SD rats intragastrically, and the concentrations of the test compounds in plasma of the rats were measured to evaluate pharmacokinetic characteristics of the test compounds in the rats.
Test animals: male SD rats, 200-250 g, 6-8 weeks old, 3 rats/compound, purchased from Chengdu Dossy Experimental Animals Co., Ltd.
Test method: on the day of the test, 3 SD rats were randomly grouped according to their body weights. The animals were fasted with water available for 12 to 14 hours one day before the administration of a test compound, and were fed 4 hours after the administration.
Sampling: before and after the administration, 0.1 mL of blood was taken from the orbits of the rats under isoflurane anesthesia, and placed in an EDTAK2 centrifuge tube. Centrifugation was carried out at 5000 rpm at 4C for […], and the plasma was collected.
Time points for plasma collection in G1 group: 0, 5 min, 15 min, 30 min, 1 h, 2 h, 4 h, 6 h, 8 h, and 24 h.
Before analysis and detection, all samples were stored at −80° C. The samples were analyzed quantitatively by LC-MS/MS.

Consider `CC(C)(c1ccc(OCc2ccnc(N3CCN(C4CCN(C5CN(c6ccc7c(c6)C(=O)N(C6CCC(=O)NC6=O)C7=O)C5)CC4)CC3)n2)cc1)c1cc(Cl)cc(C#N)c1` (centres unmarked) [Compound 10, 3-chloro-5-(2-(4-((2-(4-(1-(1-(2-(2,6-dioxopiperidin-3-yl)-1,3-dioxoisoindolin-5-yl)azetidin-3-yl)piperidin-4-yl)piperazin-1-yl)pyrimidin-4-yl)methoxy)phenyl)propan-2-yl)benzonitrile], for which the IC50 with 22RV1 cells is 562 nM. Further, the “AR-Vs Dmax % (maximum degradation rate)” value in series [1] turned out to be 64%.

Take `CC(C)(c1ccc(OCc2ccnc(N3CCN(C4CCN(C5CN(c6ccc7c(c6)C(=O)N(C6CCC(=O)NC6=O)C7=O)C5)CC4)CC3)n2)cc1)c1cc(Cl)c(OCCCl)c(C#N)c1` (centres unmarked) [Compound 5 trifluoroacetate, 3-chloro-2-(2-chloroethoxy)-5-(2-(4-((2-(4-(1-(1-(2-(2,6-dioxopiperidin-3-yl)-1,3-dioxoisoindolin-5-yl)azetidin-3-yl)piperidin-4-yl)piperazin-1-yl)pyrimidin-4-yl)methoxy)phenyl)propan-2-yl)benzonitrile (Compound 5) trifluoroacetate]: the “AR-FL Dmax % (maximum degradation rate)” value in the series with full-length AR (AR-FL) is 52.5%. Turning to `Cn1c(=O)n(C2CCC(=O)NC2=O)c2cccc(CN3CC(N4CCC(N5CCN(c6nccc(COc7ccc(C(C)(C)c8cc(Cl)cc(C#N)c8)cc7)n6)CC5)CC4)C3)c21` (centres unmarked) [Compound 9 trifluoroacetate, 3-chloro-5-(2-(4-((2-(4-(1-(1-((1-(2,6-dioxopiperidin-3-yl)-3-methyl-2-oxo-2,3-dihydro-1H-benzo[d]imidazol-4-yl)methyl)azetidin-3-yl)piperidin-4-yl)piperazin-1-yl)pyrimidin-4-yl)methoxy)phenyl)propan-2-yl)benzonitrile (Compound 9) trifluoroacetate], in the series on full-length AR (AR-FL), the “AR-FL Dmax % (maximum degradation rate)” value is 68.3%. Also, the “AR-Vs Dmax % (maximum degradation rate)” value in series [1] is reported as 76.8%. `Cn1c(=O)n(C2CCC(=O)NC2=O)c2cccc(CN3CC(N4CCC(N5CCN(c6nccc(COc7ccc(C(C)(C)c8cc(Cl)c(OCCCl)c(C#N)c8)cc7)n6)CC5)CC4)C3)c21` (centres unmarked) [Compound 6 trifluoroacetate, 3-chloro-2-(2-chloroethoxy)-5-(2-(4-((2-(4-(1-(1-((1-(2,6-dioxopiperidin-3-yl)-3-methyl-2-oxo-2,3-dihydro-1H-benzol[d]imidazol-4-yl)methyl)azetidin-3-yl)piperidin-4-yl)piperazin-1-yl)pyrimidin-4-yl)methoxy)phenyl)propan-2-yl)benzonitrile (Compound 6) trifluoroacetate]: the “AR-FL Dmax % (maximum degradation rate)” value in the series on full-length AR (AR-FL) turned out to be 57.6%. For the compound `CC(C)(c1ccc(OCc2ccnc(N3CCC(CN4CCC(C5CCN(c6ccc(C(=O)NC7CCC(=O)NC7=O)nc6)CC5)CC4)CC3)n2)cc1)c1cc(Cl)cc(C#N)c1` (centres unmarked) [Compound 110 trifluoroacetate, 5-(1′-((1-(4-((4-(2-(3-chloro-5-cyanophenyl)propan-2-yl)phenoxy)methyl)pyrimidin-2-yl)piperidin-4-yl)methyl)-[4,4′-bipiperidin]-1-yl)-N-(2,6-dioxopiperidin-3-yl)picolinamide], in the series with 22RV1 cells (Homo sapiens, 22Rv1, 168 h), the IC50 stood at 446 nM. For the same compound, the AUC(0-t) in series [2] was 563 ± 350 ng·h/mL. Further, in series [1], the “AR-Vs Dmax % (maximum degradation rate)” value came out at 56%. For the compound `Cn1c(=O)n(C2CCC(=O)NC2=O)c2cccc(CN3CCC(CN4CCC(C5CCN(c6nccc(COc7ccc(C(C)(C)c8cc(Cl)c(OCCCl)c(C#N)c8)cc7)n6)CC5)CC4)CC3)c21` (centres unmarked) [Compound 126 trifluoroacetate, 3-chloro-2-(2-chloroethoxy)-5-(2-(4-((2-(1′-((1-((1-(2,6-dioxopiperidin-3-yl)-3-methyl-2-oxo-2,3-dihydro-1H-benzo[d]imidazol-4-yl)methyl)piperidin-4-yl)methyl)-[4,4′-bipiperidin]-1-yl)pyrimidin-4-yl)methoxy)phenyl)propan-2-yl)benzonitrile], in the series with full-length AR (AR-FL), the “AR-FL Dmax % (maximum degradation rate)” value is 98%. The “AR-Vs Dmax % (maximum degradation rate)” value in series [1] was 95%.
